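Exposure lasted 48 hours, with cells grown in 96-well plates and compounds tested at five concentrations. Definition used: TGI = concentration required for complete inhibition of growth.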
Tests used:
Experiment in all cases: NCI anticancer screen, dose series, 48 h
786-0 renal = system: 786-0 renal
A498 renal = system: A498 renal
A549 NSCLC = system: A549 NSCLC
ACHN renal = system: ACHN renal
BT-549 breast = system: BT-549 breast
CAKI-1 renal = system: CAKI-1 renal
CCRF-CEM leukemia = system: CCRF-CEM leukemia
COLO 205 colon = system: COLO 205 colon
DU-145 prostate = system: DU-145 prostate
EKVX NSCLC = system: EKVX NSCLC
HCC-2998 colon = system: HCC-2998 colon
HCT-116 colon = system: HCT-116 colon
HCT-15 colon = system: HCT-15 colon
HL-60(TB) leukemia = system: HL-60(TB) leukemia
HOP-62 NSCLC = system: HOP-62 NSCLC
HOP-92 NSCLC = system: HOP-92 NSCLC
HS 578T breast = system: HS 578T breast
HT29 colon = system: HT29 colon
IGROV1 ovarian = system: IGROV1 ovarian
K-562 leukemia = system: K-562 leukemia
KM12 colon = system: KM12 colon
LOX IMVI melanoma = system: LOX IMVI melanoma
M14 melanoma = system: M14 melanoma
MALME-3M melanoma = system: MALME-3M melanoma
MCF7 breast = system: MCF7 breast
MDA-MB-231 breast = system: MDA-MB-231 breast
MDA-MB-435 = system: MDA-MB-435
MDA-N = system: MDA-N
MOLT-4 leukemia = system: MOLT-4 leukemia
NCI-H226 lung = system: NCI-H226 lung
NCI-H23 lung = system: NCI-H23 lung
NCI-H460 lung = system: NCI-H460 lung
NCI-H522 lung = system: NCI-H522 lung
NCI/ADR-RES ovarian = system: NCI/ADR-RES ovarian
OVCAR-3 ovarian = system: OVCAR-3 ovarian
OVCAR-4 ovarian = system: OVCAR-4 ovarian
OVCAR-5 ovarian = system: OVCAR-5 ovarian
OVCAR-8 ovarian = system: OVCAR-8 ovarian
PC-3 prostate = system: PC-3 prostate
RPMI-8226 leukemia = system: RPMI-8226 leukemia
RXF 393 renal = system: RXF 393 renal
SF-268 CNS = system: SF-268 CNS
SF-295 CNS = system: SF-295 CNS
SF-539 CNS = system: SF-539 CNS
SK-MEL-2 melanoma = system: SK-MEL-2 melanoma
SK-MEL-28 melanoma = system: SK-MEL-28 melanoma
SK-MEL-5 melanoma = system: SK-MEL-5 melanoma
SK-OV-3 ovarian = system: SK-OV-3 ovarian
SN12C renal = system: SN12C renal
SNB-19 CNS = system: SNB-19 CNS
SNB-75 CNS = system: SNB-75 CNS
SR leukemia = system: SR leukemia
SW-620 colon = system: SW-620 colon
T-47D breast = system: T-47D breast
TK-10 renal = system: TK-10 renal
U251 CNS = system: U251 CNS
UACC-257 melanoma = system: UACC-257 melanoma
UACC-62 melanoma = system: UACC-62 melanoma
UO-31 renal = system: UO-31 renal
DLD-1 colon = system: DLD-1 colon
DMS 114 small cell lung = system: DMS 114 small cell lung
KM20L2 colon = system: KM20L2 colon
M19-MEL melanoma = system: M19-MEL melanoma
SNB-78 CNS = system: SNB-78 CNS
XF 498 CNS = system: XF 498 CNS

For `CC1CC[C@@]2(OC1)OC1C[C@H]3[C@@H]4CC[C@H]5CC(OC6OC(CO)C(OC7OC(CO)C(O)C(O)C7O)C(O)C6O)CCC5(C)[C@H]4CCC3(C)C1[C@@H]2C` (stereo not given in full), the TGI (786-0 renal) was 15.6 µM, the TGI (A498 renal) was 16.3 µM and the TGI (A549 NSCLC) was 19.6 µM. For the same molecule, the TGI (ACHN renal) was 14.5 µM, the TGI (BT-549 breast) was 11 µM and the TGI (CAKI-1 renal) was 16.9 µM. The TGI (CCRF-CEM leukemia) was 21.7 µM, the TGI (COLO 205 colon) was 14 µM and the TGI (DU-145 prostate) was 18 µM. For the same molecule, the TGI (EKVX NSCLC) was 12.2 µM, the TGI (HCC-2998 colon) was 12.9 µM and the TGI (HCT-116 colon) was 15 µM. The TGI (HCT-15 colon) was 28.9 µM, the TGI (HL-60(TB) leukemia) was 18.5 µM and the TGI (HOP-62 NSCLC) was 16.1 µM. For the same molecule, the TGI (HOP-92 NSCLC) was 16.5 µM, the TGI (HS 578T breast) was 17.1 µM and the TGI (HT29 colon) was 15.8 µM. For the same molecule, the TGI (IGROV1 ovarian) was 9.77 µM, the TGI (K-562 leukemia) was 42.6 µM and the TGI (KM12 colon) was 15.8 µM. The TGI (LOX IMVI melanoma) was 12.3 µM, the TGI (M14 melanoma) was 18.2 µM and the TGI (MALME-3M melanoma) was 15.7 µM. It also gave a TGI (MCF7 breast) of 15 µM, a TGI (MDA-MB-231 breast) of 17.2 µM and a TGI (MDA-MB-435) of 18 µM. The TGI (MDA-N) was 16.3 µM, the TGI (MOLT-4 leukemia) was 25.4 µM and the TGI (NCI-H226 lung) was 16.5 µM. It also gave a TGI (NCI-H23 lung) of 16.2 µM, a TGI (NCI-H460 lung) of 21.1 µM and a TGI (NCI-H522 lung) of 13.8 µM. For the same molecule, the TGI (NCI/ADR-RES ovarian) was 19.9 µM, the TGI (OVCAR-3 ovarian) was 14.6 µM and the TGI (OVCAR-4 ovarian) was 17.1 µM. It also gave a TGI (OVCAR-5 ovarian) of 17.2 µM, a TGI (OVCAR-8 ovarian) of 16.7 µM and a TGI (PC-3 prostate) of 15.1 µM. The TGI (RPMI-8226 leukemia) was 45.3 µM, the TGI (RXF 393 renal) was 19.8 µM and the TGI (SF-268 CNS) was 18.1 µM. It also gave a TGI (SF-295 CNS) of 16.4 µM, a TGI (SF-539 CNS) of 16.3 µM and a TGI (SK-MEL-2 melanoma) of 15.3 µM. It also gave a TGI (SK-MEL-28 melanoma) of 16.6 µM, a TGI (SK-MEL-5 melanoma) of 16.1 µM and a TGI (SK-OV-3 ovarian) of 18.7 µM. For the same molecule, the TGI (SN12C renal) was 15.3 µM, the TGI (SNB-19 CNS) was 17.9 µM and the TGI (SNB-75 CNS) was 18.7 µM. The TGI (SR leukemia) was 27.5 µM, the TGI (SW-620 colon) was 17.8 µM and the TGI (T-47D breast) was 20.4 µM. For the same molecule, the TGI (TK-10 renal) was 17.6 µM, the TGI (U251 CNS) was 17.4 µM and the TGI (UACC-257 melanoma) was 18.3 µM. It also gave a TGI (UACC-62 melanoma) of 17.6 µM and a TGI (UO-31 renal) of 22.5 µM.

`CN(N)/N=N/c1nc[nH]c1C(N)=O` gave a TGI (786-0 renal) greater than 100 µM, a TGI (A498 renal) greater than 100 µM and a TGI (A549 NSCLC) greater than 100 µM. For the same molecule, the TGI (ACHN renal) was greater than 100 µM, the TGI (BT-549 breast) was greater than 100 µM and the TGI (CAKI-1 renal) was 55.2 µM. For the same molecule, the TGI (CCRF-CEM leukemia) was greater than 27 µM, the TGI (COLO 205 colon) was greater than 69.7 µM and the TGI (DU-145 prostate) was greater than 100 µM. For the same molecule, the TGI (EKVX NSCLC) was greater than 100 µM, the TGI (HCC-2998 colon) was greater than 42.2 µM and the TGI (HCT-116 colon) was greater than 100 µM. For the same molecule, the TGI (HCT-15 colon) was greater than 100 µM, the TGI (HL-60(TB) leukemia) was 14.6 µM and the TGI (HOP-62 NSCLC) was greater than 100 µM. For the same molecule, the TGI (HOP-92 NSCLC) was greater than 100 µM, the TGI (HS 578T breast) was greater than 100 µM and the TGI (HT29 colon) was greater than 100 µM. For the same molecule, the TGI (IGROV1 ovarian) was greater than 100 µM, the TGI (K-562 leukemia) was greater than 100 µM and the TGI (KM12 colon) was greater than 82.4 µM. It also gave a TGI (LOX IMVI melanoma) greater than 100 µM, a TGI (M14 melanoma) greater than 100 µM and a TGI (MALME-3M melanoma) greater than 100 µM. The TGI (MCF7 breast) was greater than 100 µM, the TGI (MDA-MB-231 breast) was greater than 32.2 µM and the TGI (MDA-MB-435) was greater than 100 µM. The TGI (MDA-N) was greater than 100 µM, the TGI (MOLT-4 leukemia) was 8.05 µM and the TGI (NCI-H226 lung) was greater than 100 µM. It also gave a TGI (NCI-H23 lung) greater than 100 µM, a TGI (NCI-H460 lung) greater than 71.5 µM and a TGI (NCI-H522 lung) greater than 100 µM. It also gave a TGI (NCI/ADR-RES ovarian) greater than 100 µM, a TGI (OVCAR-3 ovarian) greater than 100 µM and a TGI (OVCAR-4 ovarian) greater than 100 µM. For the same molecule, the TGI (OVCAR-5 ovarian) was greater than 100 µM, the TGI (OVCAR-8 ovarian) was greater than 100 µM and the TGI (PC-3 prostate) was greater than 100 µM. For the same molecule, the TGI (RPMI-8226 leukemia) was greater than 100 µM, the TGI (RXF 393 renal) was greater than 100 µM and the TGI (SF-268 CNS) was greater than 100 µM. For the same molecule, the TGI (SF-295 CNS) was greater than 70.9 µM, the TGI (SF-539 CNS) was greater than 100 µM and the TGI (SK-MEL-2 melanoma) was greater than 100 µM. For the same molecule, the TGI (SK-MEL-28 melanoma) was greater than 100 µM, the TGI (SK-MEL-5 melanoma) was greater than 100 µM and the TGI (SK-OV-3 ovarian) was greater than 100 µM. The TGI (SN12C renal) was greater than 57.2 µM, the TGI (SNB-19 CNS) was greater than 100 µM and the TGI (SNB-75 CNS) was greater than 100 µM. The TGI (SR leukemia) was 2.23 µM, the TGI (SW-620 colon) was greater than 100 µM and the TGI (T-47D breast) was greater than 100 µM. The TGI (TK-10 renal) was greater than 100 µM, the TGI (U251 CNS) was greater than 100 µM and the TGI (UACC-257 melanoma) was greater than 100 µM. The TGI (UACC-62 melanoma) was greater than 100 µM and the TGI (UO-31 renal) was greater than 62.2 µM.

With `Cc1cccc(C)c1NC(=O)CCCC(=O)C1CC(=O)CCC1=O` (stereo not given) the TGI (786-0 renal) was greater than 100 µM, the TGI (A498 renal) was greater than 100 µM and the TGI (ACHN renal) was greater than 100 µM. The TGI (DLD-1 colon) was greater than 100 µM, the TGI (DMS 114 small cell lung) was greater than 100 µM and the TGI (EKVX NSCLC) was greater than 100 µM. For the same molecule, the TGI (HCC-2998 colon) was greater than 100 µM, the TGI (HCT-116 colon) was greater than 100 µM and the TGI (HCT-15 colon) was greater than 100 µM. The TGI (HOP-62 NSCLC) was greater than 100 µM, the TGI (HT29 colon) was greater than 100 µM and the TGI (KM20L2 colon) was greater than 100 µM. It also gave a TGI (M19-MEL melanoma) greater than 100 µM, a TGI (MALME-3M melanoma) greater than 100 µM and a TGI (MOLT-4 leukemia) greater than 100 µM. The TGI (NCI-H226 lung) was greater than 100 µM, the TGI (NCI-H23 lung) was greater than 100 µM and the TGI (NCI-H522 lung) was greater than 100 µM. For the same molecule, the TGI (OVCAR-3 ovarian) was greater than 100 µM, the TGI (OVCAR-4 ovarian) was greater than 100 µM and the TGI (OVCAR-8 ovarian) was greater than 100 µM. The TGI (RPMI-8226 leukemia) was greater than 100 µM, the TGI (RXF 393 renal) was greater than 100 µM and the TGI (SF-268 CNS) was greater than 100 µM. The TGI (SF-539 CNS) was greater than 100 µM, the TGI (SK-MEL-28 melanoma) was greater than 100 µM and the TGI (SK-OV-3 ovarian) was greater than 100 µM. The TGI (SN12C renal) was greater than 100 µM, the TGI (SNB-19 CNS) was greater than 100 µM and the TGI (SNB-75 CNS) was greater than 100 µM. The TGI (SNB-78 CNS) was greater than 100 µM, the TGI (SR leukemia) was greater than 100 µM and the TGI (U251 CNS) was greater than 100 µM. It also gave a TGI (UACC-257 melanoma) greater than 100 µM, a TGI (UACC-62 melanoma) greater than 100 µM and a TGI (UO-31 renal) greater than 100 µM. For the same molecule, the TGI (XF 498 CNS) was greater than 100 µM.
